From article PMC9457730, “Ajuforrestin A, an Abietane Diterpenoid from Ajuga ovalifolia var. calanthe, Induces A549 Cell Apoptosis by Targeting SHP2” (Molecules, 2022)

Tests used:
[1] = molecular target: T1, SHP2 (Homo sapiens, UniProt Q06124); experiment: SHP2 catalytic activity in vitro (DiFMUP substrate); format: biochemical; set-up: GST; made in house; host or cells: Escherichia coli BL21; conditions: 15 nM purified SHP2, DiFMUP 10 μM
T1 sequence (Q06124 1-593): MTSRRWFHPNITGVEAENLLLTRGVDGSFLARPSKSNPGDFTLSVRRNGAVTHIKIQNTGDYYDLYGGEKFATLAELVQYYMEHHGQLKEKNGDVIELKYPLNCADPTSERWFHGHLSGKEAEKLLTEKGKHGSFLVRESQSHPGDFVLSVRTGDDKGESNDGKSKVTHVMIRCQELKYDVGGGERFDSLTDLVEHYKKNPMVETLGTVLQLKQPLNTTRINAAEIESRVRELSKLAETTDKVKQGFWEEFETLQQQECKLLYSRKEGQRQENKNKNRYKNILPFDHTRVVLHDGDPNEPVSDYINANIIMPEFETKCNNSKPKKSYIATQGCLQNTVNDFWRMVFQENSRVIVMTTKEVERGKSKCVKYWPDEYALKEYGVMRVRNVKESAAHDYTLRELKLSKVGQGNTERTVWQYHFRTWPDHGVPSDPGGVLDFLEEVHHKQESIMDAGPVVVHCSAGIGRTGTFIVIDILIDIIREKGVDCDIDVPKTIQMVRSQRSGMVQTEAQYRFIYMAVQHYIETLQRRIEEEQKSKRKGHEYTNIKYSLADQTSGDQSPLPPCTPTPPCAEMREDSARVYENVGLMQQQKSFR
Description: (§1) Escherichia coli BL21 was used to express SHP1 and SHP2 protein and proteins were purified with GST tag. In total, 15 nM SHP1 or SHP2 purified protein, a test compound (10 μM) or DMSO and reaction buffer in 100 μL constitute the reaction system. DiFMUP (10 μM) was added to the reaction system to initiate the reaction. The inhibitory effects of compounds 1–3 were detected by Varioskan Lux with 355 nm excitation and 460 nm emission wavelengths.

[2] = molecular target: T2, SHP1 (Homo sapiens, UniProt P29350); experiment: SHP1 catalytic activity in vitro (DiFMUP substrate); format: biochemical; conditions: for inhibitory effect on SHP1 catalytic activity: at high concentrations
T2 construct: GST; made in house; host or cells: Escherichia coli BL21
T2 sequence (P29350 whole entry): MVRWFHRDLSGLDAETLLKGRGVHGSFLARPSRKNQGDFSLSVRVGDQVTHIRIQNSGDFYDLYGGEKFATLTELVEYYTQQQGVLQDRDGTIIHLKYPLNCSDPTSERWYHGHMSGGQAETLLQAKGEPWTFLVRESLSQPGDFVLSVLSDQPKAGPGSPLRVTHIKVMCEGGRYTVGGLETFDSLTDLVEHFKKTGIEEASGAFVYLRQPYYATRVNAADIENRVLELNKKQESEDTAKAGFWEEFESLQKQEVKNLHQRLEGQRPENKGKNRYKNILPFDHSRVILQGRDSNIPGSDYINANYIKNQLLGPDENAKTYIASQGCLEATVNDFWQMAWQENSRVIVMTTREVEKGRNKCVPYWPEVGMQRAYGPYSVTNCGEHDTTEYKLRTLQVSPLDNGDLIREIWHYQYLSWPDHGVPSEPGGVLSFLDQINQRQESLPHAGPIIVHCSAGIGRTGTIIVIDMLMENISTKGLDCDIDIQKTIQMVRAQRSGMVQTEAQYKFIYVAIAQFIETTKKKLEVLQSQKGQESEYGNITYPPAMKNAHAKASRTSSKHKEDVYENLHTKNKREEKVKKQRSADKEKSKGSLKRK
Description: as §1

[3] = tested on: A549 cells; experiment: A549 cell invasion assay (matrigel); format: cell-based, Human; conditions: 24 h incubation
Description: The inner chamber was pre-coated with matrigel. Cells were seeded in the inner chamber with FBS-free medium, and DMEM medium with 5% FBS was added to the outer chamber. After a 24 h treatment with compound 2, 4% paraformaldehyde was used to fix the cells and 0.1% crystal violet was used to stain A549 cells.

[4] = tested on: A549 cells; experiment: Cell viability assay (CCK-8); format: cell-based, Human
[5] = molecular target: T1, SHP2; experiment: Cellular thermal shift assay (CETSA); format: binding; set-up: endogenous in cells; host or cells: A549; conditions: A549 cell supernatant
Description: A total of 549 cells in 12 cm dish were collected and washed with PBS three times. After three rounds of liquid nitrogen-thaw and centrifugation at 13,000× g for 10 min at 4 °C, the cell supernatant was collected. The cell supernatant was divided into two aliquots of 50 μL each. Compound 2 or DMSO was added to each sample. The sample was heated from 50 °C to 62 °C, then cooled for 3 min [33]. Finally, all samples were processed under 4.7.

[6] = tested on: A549 cells; experiment: Apoptosis flow cytometry (Annexin V-FITC/PI); format: cell-based, Human; conditions: A549, 72 h
Description: After 72 h treatment with different concentrations of compound 2, A549 cells were collected and rinsed three times with PBS. A 195 μL Annexin V-FITC buffer, 5 μL Annexin V-FITC, and 10 μL PI were sequentially added to each sample. The apoptotic cells were detected and analyzed by flow cytometry (ACEA NovoCyte, Hangzhou, China).

[7] = tested on: SHP2; experiment: Western blot of cellular SHP2 / p-SHP2 expression; format: cell-based, Human; conditions: A549, 72 h
Description: (§2) After compound 2 treatment, RIPA buffer was used to lyse cells’ protein. Equal sample proteins were added in SDS-PAGE, separated with 100 V in 60 min, then transferred into PVDF membranes, and the membranes incubated with corresponding primary antibodies (Huabio, Hangzhou, China). GAPDH or Tubulin served as normal control.

[8] = tested on: cleaved caspase-3, 8, 9 and cleaved-PARP; experiment: Western blot of apoptosis-related signaling pathway; format: cell-based, Human; conditions: A549, 72 h
Description: as §2

[9] = tested on: A549 cells; experiment: A549 cell wound-healing assay; format: cell-based, Human; conditions: up to 72 h
Description: When the A549 cell covered 80% of cell culture dish, these cells were seeded in 6-well plates at 5 × 10^5 cells/well, respectively. After the cells adhered to the plates, wound formation was performed by 200 μL pipette tips. Then, A549 cells were treated with different concentrations of compound 2 for 72 h. The image of each gap was obtained by Leica TCS SP8 (Leica, Wetzlar, Germany) at 0, 24, 72 h, respectively.

[10] = tested on: p-ERK1/2, PI3K-AKT and STAT3 signaling pathways; experiment: Western blot of ERK, AKT, STAT3 signaling pathway; format: cell-based, Human; conditions: A549, 72 h
Description: as §2

[11] = tested on: caspase-3; experiment: Caspase-3 activity assay (Ac-DEVD-AFC); format: cell-based, Human; conditions: A549, 72 h
Description: Ac-DEVD-AFC, a caspase-3 fluorimetric substrate, was used to detect caspase-3 activity. After 72 h treatment with compound 2, cell supernatants were collected. The 20 μL cell supernatants, 100 μM Ac-DEVD-AFC, and reaction buffer constituted the 100 μL reaction system, and was then incubated at 37 °C for another 1 h. Caspase-3 activity was detected by Varioskan Lux with 405 nm excitation and 510 nm emission wavelengths.

SMILES	IC50 [1] [µM]	inhibitory effect on SHP1 catalytic activity [2]	A549 cell invasion ability [3]	A549 cell viability ([4]; 24 h treatment)	IC50 ([4]; Homo sapiens, A549, CCK-8, 72 h, read-out: IC50 A549 cell proliferation) [µM]	SHP2 stability with increasing concentration (CETSA) [5]	SHP2 thermal stability (CETSA) ([5]; 50 °C to 62 °C)	apoptotic cells [6]	cellular SHP2 expression [7]	expression of SHP2 and phosphorylation of SHP2 [7]	cleaved-PARP [8]	cleaved caspase-3, 8, 9 ([8]; various doses)	A549 cell migration [9]	p-ERK1/2 expression [10]	PI3K-AKT and STAT3 signaling pathways ([10]; various concentrations)	inhibitory effect on SHP1 ([2]; below 20 μM)	caspase-3 expression [11]
CC1=C(C)C2=CC(=O)C3=C(C(=O)c4oc(C)cc4C3=O)[C@@]2(C)CC1 [Compound 1, 12, 16-epoxy-17(15→16), 18(4→3)-diabeo-abieta-3,5,8, 12, 15-pentaene-7, 11, 14-trione]	26 ± 1.41	inhibited SHP1 catalytic activity at high concentrations															
CC1=C(C)C2=CC(=O)c3c(c(O)c4occ(C)c4c3O)[C@@]2(C)CC1 [Compound 2, Ajuforrestin A]	7.01 ± 0.85		obviously decreased	did not affect A549 cell viability	8.68 ± 0.96	raised SHP2 stability	decrease in SHP2 expression with increasing temperature was suppressed	obvious increase in apoptotic cells	suppressed SHP2 expression in a dose-dependent manner	down-regulated	activated	up-regulated	significantly restrained A549 cell migration	markedly inhibited p-ERK1/2 expression	obviously inhibited	no inhibitory effects	significant rise in caspase-3 expression in a dose-dependent manner
CC1=C(C)C2=CC(=O)c3c(O)c4c(c(O)c3[C@@]2(C)CC1=O)OC[C@H]4C [Compound 3, Ajudecumin A]	20 ± 1.31	inhibited SHP1 catalytic activity at high concentrations															
